This passage reports IC50 results from patent US20150353495A1 (PORTOLA PHARMACEUTICALS, INC., priority 2010, published 2015).

One may read the IC50 as the concentration that inhibits the measured activity by half. A lower IC50 goes with inhibition by little substance.

What all share (format): biochemical
In test [1] the target is T1, JAK1 (Homo sapiens, UniProt P23458).
T1 construct: 5 μl of catalytic domain recombinant Kinase enzyme+Tyr peptide substrate (Invitrogen, CA); purchased Invitrogen
The experiment in a line: Z'-LYTE kinase assay JAK1. The method in brief:
(§1)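 Read-out is FRET fluorescence between coumarin and fluorescein on a Tyr6 peptide, lost when the development protease cleaves unphosphorylated substrate. Kinase reaction used recombinant catalytic domain with ATP, 1 h at room temperature, 1% DMSO.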

The target in test [2] is T2, JAK2 (Homo sapiens, UniProt O60674).
T2 construct: 5 μl of catalytic domain recombinant Kinase enzyme+Tyr peptide substrate (Invitrogen, CA); purchased Invitrogen
Kind of test: Z'-LYTE kinase assay JAK2. Put shortly: as §1

For test [3], the target named is T3, JAK3 (Homo sapiens, UniProt P52333).
T3 construct: 5 μl of catalytic domain recombinant Kinase enzyme+Tyr peptide substrate (Invitrogen, CA); purchased Invitrogen
The experiment in a line: Z'-LYTE kinase assay JAK3. Put shortly: as §1

T1 sequence (P23458 875-1153 limits assumed): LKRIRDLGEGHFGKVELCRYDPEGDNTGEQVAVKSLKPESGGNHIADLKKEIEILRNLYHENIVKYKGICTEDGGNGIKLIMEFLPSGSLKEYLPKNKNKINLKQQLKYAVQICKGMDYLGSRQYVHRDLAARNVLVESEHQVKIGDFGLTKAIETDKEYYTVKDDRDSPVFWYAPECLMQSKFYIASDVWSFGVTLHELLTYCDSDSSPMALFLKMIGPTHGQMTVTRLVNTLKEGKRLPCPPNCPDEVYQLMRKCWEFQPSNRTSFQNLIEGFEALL
T2 sequence (O60674 849-1124 limits assumed): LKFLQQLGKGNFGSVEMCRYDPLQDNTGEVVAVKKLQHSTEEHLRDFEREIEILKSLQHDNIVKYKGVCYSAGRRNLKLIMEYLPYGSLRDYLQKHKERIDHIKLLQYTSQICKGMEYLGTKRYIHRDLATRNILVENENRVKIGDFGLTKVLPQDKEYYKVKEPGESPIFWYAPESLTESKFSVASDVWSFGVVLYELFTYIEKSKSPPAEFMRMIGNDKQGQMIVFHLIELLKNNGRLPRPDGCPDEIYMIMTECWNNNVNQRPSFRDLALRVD
T3 sequence (P52333 822-1111 limits assumed): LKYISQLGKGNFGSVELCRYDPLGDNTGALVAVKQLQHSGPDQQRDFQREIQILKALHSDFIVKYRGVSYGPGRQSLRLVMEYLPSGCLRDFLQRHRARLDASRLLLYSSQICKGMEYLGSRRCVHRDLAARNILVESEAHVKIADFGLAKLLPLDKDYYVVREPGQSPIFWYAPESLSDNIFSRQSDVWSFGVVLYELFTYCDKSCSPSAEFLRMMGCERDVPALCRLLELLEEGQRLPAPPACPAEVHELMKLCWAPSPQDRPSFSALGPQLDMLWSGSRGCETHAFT

`CCC(=O)N1CCC(c2ccc(Nc3cc(NCc4c(F)cccc4F)c(C(N)=O)cn3)cc2)CC1` [Example 203, 4-(2,6-difluorobenzylamino)-6-(4-(1-propionylpiperidin-4-yl)phenylamino)nicotinamide]: the IC50 in test [1] is 100 to 1000 nM; in test [2], 10 to 100 nM; in test [3], 1 to 10 nM.
In the same order, the values of `NC(=O)c1cnc(Nc2cccc(C3CCOCC3)c2)cc1NCc1cccc(F)c1` [Example 204, 4-(3-fluorobenzylamino)-6-(3-(tetrahydro-2H-pyran-4-yl)phenylamino)nicotinamide] are 100 to 1000 nM, 10 to 100 nM and 1 to 10 nM.
In the same order, the values of `NC(=O)c1cnc(Nc2cccc(C3CCOCC3)c2)cc1NCc1cccc(F)c1F` [Example 205, 4-(2,3-difluorobenzylamino)-6-(3-(tetrahydro-2H-pyran-4-yl)phenylamino)nicotinamide] are 100 to 1000 nM, 10 to 100 nM and 1 to 10 nM.
In the same order, the values of `NC(=O)c1cnc(Nc2cccc(C3CCOCC3)c2)cc1NCc1cc(F)cc(F)c1` [Example 206, 4-(3,5-difluorobenzylamino)-6-(3-(tetrahydro-2H-pyran-4-yl)phenylamino)nicotinamide] are 100 to 1000 nM, 10 to 100 nM and 1 to 10 nM.
As to `NC(=O)c1cnc(Nc2cccc(C3CCOCC3)c2)cc1NCc1cc(F)ccc1F` [Example 207, 4-(2,5-difluorobenzylamino)-6-(3-(tetrahydro-2H-pyran-4-yl)phenylamino)nicotinamide], the IC50 in test [1] was in the range of 100 to 1000 nM; in test [2], 10 to 100 nM; in test [3], 1 to 10 nM.
In the same order, the values of `NC(=O)c1cnc(Nc2cccc(C3CCOCC3)c2)cc1NCc1cncc(F)c1` [Example 208, 4-((5-fluoropyridin-3-yl)methylamino)-6-(3-(tetrahydro-2H-pyran-4-yl)phenylamino)nicotinamide] are 100 to 1000 nM, 10 to 100 nM and 1 to 10 nM.
In the same order, the values of `CCC(=O)N1CCC(c2ccc(Nc3cc(NCc4cccc5[nH]ncc45)c(C(N)=O)cn3)cc2)CC1` [Example 210, 4-((1H-indazol-4-yl)methylamino)-6-(4-(1-propionylpiperidin-4-yl)phenylamino)nicotinamide] are 10 to 100 nM, 10 to 100 nM and 1 to 10 nM.
The like results for `CCC(=O)N1CCC(c2ccc(Nc3cc(NCc4cccc5ccsc45)c(C(N)=O)cn3)cc2)CC1` [Example 211, 4-(benzo[b]thiophen-7-ylmethylamino)-6-(4-(1-propionylpiperidin-4-yl)phenylamino)nicotinamide] were, in that order, greater than 1000 nM, 100 to 1000 nM and 1 to 10 nM.
With `NC(=O)c1cnc(Nc2ccc(C3CNC3)cc2)cc1NCc1cccc(F)c1F` [Example 212, 6-(4-(azetidin-3-yl)phenylamino)-4-(2,3-difluorobenzylamino)nicotinamide], the IC50 in test [1] lay within 100 to 1000 nM; in test [2], 10 to 100 nM; in test [3], 1 to 10 nM.
For `NC(=O)c1cnc(Nc2ccc(C3CNC3)cc2)cc1NCc1cc(F)ccc1F` [Example 213, 6-(4-(azetidin-3-yl)phenylamino)-4-(2,5-difluorobenzylamino)nicotinamide], the IC50 in test [1] lay within 100 to 1000 nM; in test [2], 10 to 100 nM; in test [3], 1 to 10 nM.
In the same order, the values of `NC(=O)c1cnc(Nc2ccc(C3CCNCC3)cc2)cc1NCc1cc(F)ccc1F` [Example 214, 4-(2,5-difluorobenzylamino)-6-(4-(piperidin-4-yl)phenylamino)nicotinamide] are 10 to 100 nM, 10 to 100 nM and 1 to 10 nM.
For the molecule `N#CCN1CCC(c2ccc(Nc3cc(NCc4cccc(F)c4F)c(C(N)=O)cn3)cc2)CC1` [Example 215, 6-(4-(1-(cyanomethyl)piperidin-4-yl)phenylamino)-4-(2,3-difluorobenzylamino)nicotinamide], the values for the half-maximal inhibitory concentration (IC50) in test [1], in test [2] and in test [3] were greater than 1000 nM, 100 to 1000 nM and 10 to 100 nM, respectively.
In the same order, the values of `NC(=O)c1cnc(Nc2ccc(C3CCN(CC(F)F)CC3)cc2)cc1NCc1cccc(F)c1F` [Example 216, 4-(2,3-difluorobenzylamino)-6-(4-(1-(2,2-difluoroethyl)piperidin-4-yl)phenylamino)nicotinamide] are greater than 1000 nM, greater than 1000 nM and 10 to 100 nM.
The like results for `NC(=O)c1cnc(Nc2ccc(C3CCN(CCF)CC3)cc2)cc1NCc1cccc(F)c1F` [Example 217, 4-(2,3-difluorobenzylamino)-6-(4-(1-(2-fluoroethyl)piperidin-4-yl)phenylamino)nicotinamide] were, in that order, 100 to 1000 nM, 10 to 100 nM and 1 to 10 nM.
The like results for `N#CCN1CCC(c2ccc(Nc3cc(NCc4cc(F)ccc4F)c(C(N)=O)cn3)cc2)CC1` [Example 218, 6-(4-(1-(cyanomethyl)piperidin-4-yl)phenylamino)-4-(2,5-difluorobenzylamino)nicotinamide] were, in that order, 100 to 1000 nM, 10 to 100 nM and 1 to 10 nM.
`CN(C)C(=O)c1ccc(Nc2cc(NCc3cccc(-n4ccnc4)c3)c(C(N)=O)cn2)cc1` [Example 224, 4-(3-(1H-imidazol-1-yl)benzylamino)-6-(4-(dimethylcarbamoyl)phenylamino)nicotinamide]: the figures for the IC50 in test [1], in test [2] and in test [3] were 100 to 1000 nM, 100 to 1000 nM and 1 to 10 nM, respectively.
Take `CC(=O)N1CCN(c2ccc(Nc3cc(NCc4ccc(F)cc4F)c(C(N)=O)cn3)cc2)CC1` [Example 259, 6-(4-(4-acetylpiperazin-1-yl)phenylamino)-4-(2,4-difluorobenzylamino)nicotinamide]: the IC50 in test [1] was greater than 1000 nM; in test [2] it was 100 to 1000 nM; in test [3], 10 to 100 nM.
On to `COC[C@@H](Nc1cc(Nc2ccc(OC)cc2)ncc1C(N)=O)c1ccccc1` [Example 260, (S)-4-(2-methoxy-1-phenylethylamino)-6-(4-methoxyphenylamino)nicotinamide], for which the half-inhibitory concentration (IC50) was greater than 1000 nM in test [1], greater than 1000 nM in test [2] and 10 to 100 nM in test [3].
Consider `COC[C@@H](Nc1cc(Nc2cccc(N3CCOCC3)c2)ncc1C(N)=O)c1ccccc1` [Example 261, (S)-4-(2-methoxy-1-phenylethylamino)-6-(3-morpholinophenylamino)nicotinamide], for which the half-maximal inhibitory concentration (IC50) is greater than 1000 nM in test [1], 100 to 1000 nM in test [2] and 10 to 100 nM in test [3].
The like results for `COC[C@@H](Nc1cc(Nc2ccc(N3CCOCC3)cc2)ncc1C(N)=O)c1ccccc1` [Example 262, (S)-4-(2-methoxy-1-phenylethylamino)-6-(4-morpholinophenylamino)nicotinamide] were, in that order, greater than 1000 nM, 100 to 1000 nM and 10 to 100 nM.
With `COC[C@@H](Nc1cc(Nc2ccc(C(=O)N(C)C)cc2)ncc1C(N)=O)c1ccccc1` [Example 263, (S)-6-(4-(dimethylcarbamoyl)phenylamino)-4-(2-methoxy-1-phenylethylamino)nicotinamide], the IC50 in test [1] was greater than 1000 nM; in test [2], 100 to 1000 nM; in test [3] it was 10 to 100 nM.
In the same order, the values of `COC[C@@H](Nc1cc(Nc2ccc(C(=O)N3CCC3)cc2)ncc1C(N)=O)c1ccccc1` [Example 264, (S)-6-(4-(azetidine-1-carbonyl)phenylamino)-4-(2-methoxy-1-phenylethylamino)nicotinamide] are 100 to 1000 nM, 100 to 1000 nM and 10 to 100 nM.
Turning to `COCC(=O)N1CCC[C@H](CNc2cc(Nc3ccc(C(=O)N(C)C)cc3)ncc2C(N)=O)C1` [Example 266, (R)-6-(4-(dimethylcarbamoyl)phenylamino)-4-((1-(2-methoxyacetyl)piperidin-3-yl)methylamino)nicotinamide], the IC50 was greater than 1000 nM in test [1], greater than 1000 nM in test [2] and 10 to 100 nM in test [3].
In the case of `COCC(=O)N1CCC[C@H](CNc2cc(Nc3ccc(C(=O)N4CCCC4)cc3)ncc2C(N)=O)C1` [Example 267, (R)-4-((1-(2-methoxyacetyl)piperidin-3-yl)methylamino)-6-(4-(pyrrolidine-1-carbonyl)phenylamino)nicotinamide], the values for the half-maximal inhibitory concentration (IC50) in test [1], in test [2] and in test [3] were greater than 1000 nM, 100 to 1000 nM and 10 to 100 nM, respectively.
As to `CN(C)S(=O)(=O)N(C)c1ccc(Nc2cc(NCc3ccccc3)c(C(N)=O)cn2)cc1` [Example 268, 4-(benzylamino)-6-(4-((N,N-dimethylsulfamoyl)(methyl)amino)phenylamino)nicotinamide], the IC50 is 100 to 1000 nM in test [1], 100 to 1000 nM in test [2] and 10 to 100 nM in test [3].
Turning to `CC(=O)N1CCC[C@H](CNc2cc(Nc3ccc(NS(=O)(=O)N(C)C)cc3)ncc2C(N)=O)C1` [Example 269, (R)-4-((1-acetylpiperidin-3-yl)methylamino)-6-(4-(N,N-dimethylsulfamoylamino)phenylamino)nicotinamide], the IC50 in test [1] was 100 to 1000 nM; in test [2], 100 to 1000 nM; in test [3], 10 to 100 nM.
Turning to `COc1ccc(Nc2cc(NC[C@H]3CCCNC3)c(C(N)=O)cn2)cc1` [Example 270, (S)-6-(4-methoxyphenylamino)-4-(piperidin-3-ylmethylamino)nicotinamide], the values for the IC50 in test [1], in test [2] and in test [3] were 100 to 1000 nM, greater than 1000 nM and 100 to 1000 nM, respectively.
Consider `CCC(=O)N1CCC[C@H](CNc2cc(Nc3ccc(OC)cc3)ncc2C(N)=O)C1` [Example 271, (R)-6-(4-methoxyphenylamino)-4-((1-propionylpiperidin-3-yl)methylamino)nicotinamide], for which the results for the IC50 in test [1], in test [2] and in test [3] were greater than 1000 nM, greater than 1000 nM and 10 to 100 nM, respectively.
